Test results taken from patent US4605744A, “Imidazole derivatives” (Hoffmann-La Roche Inc., priority 1985, dated 1986).
Structures can show the parent of a compound that is named as a salt.

Assays:
Assay in all cases: In vitro antibacterial activity (MIC)
Assay type in all cases: cell-based
C. diversus CDC 1663-72 = details: Citrobacter koseri, CDC166372; C. diversus CDC 1663-72; read-out: MIC
Outline: (§1)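 Read-out: visible growth, checked with a viewer after overnight incubation at 37° C. Bacteria, from a 10^-2 dilution of an overnight culture, were exposed to drug at 128 to 0.008 μg/ml in Mueller-Hinton broth.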

C. freundii 8ASM = details: Citrobacter freundii, 8ASM, C. freundii 8ASM; read-out: MIC
Outline: as §1

C. freundii CDC6 = details: Citrobacter freundii, CDC6, C. freundii CDC6; read-out: MIC
Outline: as §1

E. aerogenes 503-478 = details: Klebsiella aerogenes, 503478, E. aerogenes 503-478; read-out: MIC
Outline: as §1

E. aerogenes 8 = details: Klebsiella aerogenes; E. aerogenes 8; read-out: MIC
Outline: as §1

E. cloacae 214 = details: Enterobacter cloacae, 214, E. cloacae 214; read-out: MIC
Outline: as §1

E. cloacae 24 = details: Enterobacter cloacae, 24, E. cloacae 24; read-out: MIC
Outline: as §1

E. cloacae 5699 = details: Enterobacter cloacae, 5699, E. cloacae 5699; read-out: MIC
Outline: as §1

E. cloacae 6951 = details: Enterobacter cloacae, 6951, E. cloacae 6951; read-out: MIC
Outline: as §1

E. cloacae 9570A = details: Enterobacter cloacae, 9570A
Outline: as §1

E. cloacae P99 = details: Enterobacter cloacae, P99, E. cloacae P99
Outline: as §1

E. coli 48 = details: Escherichia coli, 48
Outline: as §1

E. coli 4 = details: Escherichia coli, 4, E. coli 4; read-out: MIC
Outline: as §1

E. coli 503-455 = details: Escherichia coli, 503455
Outline: as §1

E. coli 5152 = details: Escherichia coli, 5152
Outline: as §1

E. coli R-563 = details: Escherichia coli, R563, E. coli R-563; read-out: MIC
Outline: as §1

K. pneumoniae 4964 = details: Klebsiella pneumoniae, 4964, K. pneumoniae 4964; read-out: MIC
Outline: as §1

K. pneumoniae 503-994 = details: Klebsiella pneumoniae, 503994, K. pneumoniae 503-994; read-out: MIC
Outline: as §1

K. pneumoniae 5096 = details: Klebsiella pneumoniae; K. pneumoniae 5096; read-out: MIC
Outline: as §1

K. pneumoniae A = details: Klebsiella pneumoniae, K. pneumoniae A; read-out: MIC
Outline: as §1

P. aeruginosa 503-56 = details: Pseudomonas aeruginosa, 50356, P. aeruginosa 503-56; read-out: MIC
Outline: as §1

P. aeruginosa 503-820 = details: Pseudomonas aeruginosa, 503820; P. aeruginosa 503-820; read-out: MIC
Outline: as §1

P. aeruginosa 5712 = details: Pseudomonas aeruginosa; P. aeruginosa 5712; read-out: MIC
Outline: as §1

P. aeruginosa 6148B = details: Pseudomonas aeruginosa, read-out: MIC
Outline: as §1

P. aeruginosa 8780 = details: Pseudomonas aeruginosa; P. aeruginosa 8780; read-out: MIC
Outline: as §1

P. aeruginosa POW 151 = details: Pseudomonas aeruginosa, POW151
Outline: as §1

P. mirabilis 2 = details: Proteus mirabilis, 2, P. mirabilis 2; read-out: MIC
Outline: as §1

P. mirabilis 503-1136 = details: Proteus mirabilis, 5031136, P. mirabilis 503-1136; read-out: MIC
Outline: as §1

P. mirabilis 620A = details: Proteus mirabilis, 620A, P. mirabilis 620A; read-out: MIC
Outline: as §1

P. mirabilis 90 = details: Proteus mirabilis, 90, P. mirabilis 90; read-out: MIC
Outline: as §1

P. vulgaris 100 = details: Proteus vulgaris; P. vulgaris 100; read-out: MIC
Outline: as §1

P. vulgaris 101 = details: Proteus vulgaris, 101, P. vulgaris 101; read-out: MIC
Outline: as §1

P. vulgaris ATCC 6380 = details: Proteus vulgaris, ATCC6380, P. vulgaris ATCC 6380; read-out: MIC
Outline: as §1

S. aureus 1059B = details: Staphylococcus aureus, read-out: MIC
Outline: as §1

S. aureus Smith = details: Staphylococcus aureus, S. aureus Smith; read-out: MIC
Outline: as §1

S. marcescens S1 = details: Serratia marcescens, S1, S. marcescens S1; read-out: MIC
Outline: as §1

S. marcescens S2 = details: Serratia marcescens; S. marcescens S2; read-out: MIC
Outline: as §1

S. marcescens S4 = details: Serratia marcescens, S4, S. marcescens S4; read-out: MIC
Outline: as §1

S. marcescens S5 = details: Serratia marcescens, S5, S. marcescens S5; read-out: MIC
Outline: as §1

S. pneumoniae 6301 = details: Streptococcus pneumoniae, 6301, S. pneumoniae 6301; read-out: MIC
Outline: as §1

S. pneumoniae 6302 = details: Streptococcus pneumoniae, 6302, S. pneumoniae 6302; read-out: MIC
Outline: as §1

S. pneumoniae SC = details: Streptococcus pneumoniae, read-out: MIC
Outline: as §1

S. pyogenes 503-782 = details: Streptococcus pyogenes, 503782; S. pyogenes 503-782; read-out: MIC
Outline: as §1

S. schottmuelleri = details: read-out: MIC
Outline: as §1

## CC1(C)S[C@@H]2[C@H](N=CN3CCC(CCCn4ccnc4[N+](=O)[O-])CC3)C(=O)N2[C@H]1C(=O)O [K, [2S-(2alpha,5alpha,6beta)]-6-[[[4-[3-(2-nitro-1H-imidazol-1-yl)propyl]piperidinyl]methylene]amino]-3,3-dimethyl-7-oxo-4-thia-1-azabicyclo[3.2.0]heptane-2-carboxylic acid hydrochloride 0.66 molar hydrate]
C. diversus CDC 1663-72
  MIC: 0.25 µg/mL
C. freundii 8ASM
  MIC: 0.25 µg/mL
C. freundii CDC6
  MIC: 0.5 µg/mL
E. aerogenes 503-478
  MIC: 4 µg/mL
E. aerogenes 8
  MIC: 8 µg/mL
E. cloacae 214
  MIC: 0.5 µg/mL
E. cloacae 24
  MIC: 1 µg/mL
E. cloacae 5699
  MIC: 1 µg/mL
E. cloacae 6951
  MIC: 16 µg/mL
E. cloacae 9570A
  MIC: 1 µg/mL
E. cloacae P99
  MIC: 0.5 µg/mL
E. coli 48
  MIC: 0.25 µg/mL
E. coli 4
  MIC: 0.5 µg/mL
E. coli 503-455
  MIC: 4 µg/mL
E. coli 5152
  MIC: 8 µg/mL
E. coli R-563
  MIC: 0.5 µg/mL
K. pneumoniae 4964
  MIC: 0.5 µg/mL
K. pneumoniae 503-994
  MIC: 0.25 µg/mL
K. pneumoniae 5096
  MIC: 16 µg/mL
K. pneumoniae A
  MIC: 0.25 µg/mL
P. aeruginosa 503-56
  MIC: > 128 µg/mL
P. aeruginosa 503-820
  MIC: > 128 µg/mL
P. aeruginosa 5712
  MIC: > 128 µg/mL
P. aeruginosa 6148B
  MIC: > 128 µg/mL
P. aeruginosa 8780
  MIC: > 128 µg/mL
P. aeruginosa POW 151
  MIC: > 128 µg/mL
P. mirabilis 2
  MIC: 4 µg/mL
P. mirabilis 503-1136
  MIC: 8 µg/mL
P. mirabilis 620A
  MIC: 16 µg/mL
P. mirabilis 90
  MIC: 8 µg/mL
P. vulgaris 100
  MIC: 16 µg/mL
P. vulgaris 101
  MIC: 16 µg/mL
P. vulgaris ATCC 6380
  MIC: 0.5 µg/mL
S. aureus 1059B
  MIC: 128 µg/mL
S. aureus Smith
  MIC: 8 µg/mL
S. marcescens S1
  MIC: 2 µg/mL
S. marcescens S2
  MIC: 2 µg/mL
S. marcescens S4
  MIC: 8 µg/mL
S. marcescens S5
  MIC: 8 µg/mL
S. pneumoniae 6301
  MIC: 1 µg/mL
S. pneumoniae 6302
  MIC: 1 µg/mL
S. pneumoniae SC
  MIC: 1 µg/mL
S. pyogenes 503-782
  MIC: 128 µg/mL
S. schottmuelleri
  MIC: 0.5 µg/mL
